Like-named read-outs stand apart in the source and are kept apart here.
How the values were obtained:
[1] = tested on: SARS-CoV2; assay: Inhibition of SARS-CoV2 replication in MucilAir reconstituted human airway epithelium, viral genome by RT-qPCR; assay type: cell-based; conditions: for effect on SARS-CoV2 replication (in words): daily treatment, increasing concentrations
[2] = Tissue distribution of radioactivity in rat after single oral [14C]-ABX464 (whole-body autoradiography, liquid scintillation counting); assay type: in vivo; conditions: for concentration of radioactivity, Aortic wall / concentration of radioactivity, Lung / concentration of radioactivity, Myocardium / concentration of radioactivity, Nasal mucosa / concentration of radioactivity, Oesophageal wall / concentration of radioactivity, Tongue / concentration of radioactivity, Blood / concentration of radioactivity, Plasma: male albino rats, single oral 20 mg/kg; for concentration of radioactivity, Blood / concentration of radioactivity, Plasma: liquid scintillation counting
Procedure: (§1) This study was conducted in order to determine the tissue distribution and rates and routes of excretion of radioactivity in the rat following a single oral administration of [^14C]-ABX464. Analysis was performed using liquid scintillation counting (plasma and excreta) and quantitative whole-body autoradiography.
(§2) All animals received a single oral administration of [^14C]-ABX464 by oral gavage, at a nominal dose level of 20 mg/kg body weight and a dose volume of approximately 5 mL/kg. The target radioactive dose administered was ca 8 MBq/kg body weight.
Radioactivity in Blood and Plasma Whilst under terminal anaesthesia, but before freezing, up to 2 mL of blood was obtained from all animals by cardiac puncture and transferred to tubes pre-coated with K2-EDTA. The residual sample was centrifuged in order to obtain plasma. The radioactivity concentration was measured in blood and plasma by liquid scintillation counting.
For each animal, the legs, tail and whiskers were trimmed off and the frozen carcass set in a block of aqueous 2% (w/v) carboxymethylcellulose. The block was mounted onto the stage of a Leica CM3600 cryomicrotome maintained at ca −20° C. (Leica Microsystems (UK) Ltd) and sagittal sections (nominal thickness 30 μm) were obtained through the carcass to include the following tissues: exorbital lachrymal gland, intra-orbital lachrymal gland, Harderian gland, adrenal gland, thyroid, brain and spinal cord. The sections, mounted on Filmolux 610 Tape (Neschen UK), were freeze-dried in a GVD03 bench-top freeze-drier (Girovac Ltd) and placed in contact with FUJI imaging plates (type BAS-MS, Raytek Scientific Ltd). [^14C]-Blood standards of appropriate activity (also sectioned at a nominal thickness of 30 μm) were placed in contact with all imaging plates.
After exposure in a copper-lined, lead exposure box for 7 days, the imaging plates were processed using a FUJI FLA-5000 radiography system (Raytek Scientific Ltd). Electronic images were analysed using a PC-based image analysis package (Seescan 2 software, LabLogic Ltd). The carbon-14 standards included with each autoradiogram were used to construct calibration lines over a range of radioactivity concentrations.
Wherever possible, the maximum area within a single autoradiogram was defined for each tissue for measurement.
(§3) A suitable scintillation counter was used. Radioassays were performed at least in duplicate. Efficiency correlation curves were prepared and routinely checked by the use of [14-C]toluene and Ultima Gold™ quenched standards (PerkinElmer LAS (UK) Ltd).
Concentration of radioactivity in sample=C (dpm/g)
Specific radioactivity of test substance=S (MBq/mg)
Concentration of radioactivity in sample=(C/60000)/S (μg equiv/g)

[3] = tested on: SARS-CoV2; assay: ABX464 in combination with Remdesivir: SARS-CoV2 viral RNA in HAE by RT-qPCR; assay type: cell-based; conditions: FIG. 3B
[4] = tested on: SARS-CoV-2; assay type: cell-based; conditions: 48 hours post-infection, FIG. 2
[5] = tested on: human reconstituted airway epithelial model of bronchial origin; assay type: cell-based; conditions: infected HAE, 48h post-infection
[6] = Rates and routes of excretion of radioactivity in rat after single oral [14C]-ABX464; assay type: in vivo
Procedure: as §1, §2, §3

[7] = Severe acute respiratory syndrome coronavirus 2, RTqPCR, mean of duplicates, read-out: % inhibition of viral infection, MEAN
[8] = Severe acute respiratory syndrome coronavirus 2, RTqPCR, replicate N1, read-out: % inhibition of viral infection, N1
[9] = Severe acute respiratory syndrome coronavirus 2, RTqPCR, replicate N2, read-out: % inhibition of viral infection, N2

## FC(F)(F)Oc1ccc(Nc2ccc3cccc(Cl)c3n2)cc1 [ABX464, 8-Chloro-N-(4-(trifluoromethoxy)phenyl)quinolin-2-amine]
[1]; [7]
  inhibition at 0.1 µM: 32.5%
  inhibition at 1 µM: 93.2%
[1]; [8]
  inhibition at 0.1 µM: 26.4%
  inhibition at 1 µM: 88.8%
[1]; [9]
  inhibition at 0.1 µM: 38.5%
  inhibition at 1 µM: 97.7%
[1]; Severe acute respiratory syndrome coronavirus 2, 5 μM, RTqPCR, mean of duplicates, read-out: % inhibition of viral infection, MEAN
  inhibition at 5 µM: 95.5%
[1]; Severe acute respiratory syndrome coronavirus 2, 5 μM, RTqPCR, replicate N1, read-out: % inhibition of viral infection, N1
  inhibition at 5 µM: 99.4%
[1]; Severe acute respiratory syndrome coronavirus 2, 5 μM, RTqPCR, replicate N2, read-out: % inhibition of viral infection, N2
  inhibition at 5 µM: 91.7%
[1]
  effect on SARS-CoV2 replication (in words): dose-dependent inhibition of SARS-CoV2 replication
[2]; 1 hour
  concentration of radioactivity, Aortic wall: 0.337 μg equivalents per gram
  concentration of radioactivity, Lung: 1.19 μg equivalents per gram
  concentration of radioactivity, Myocardium: 1.28 μg equivalents per gram
  concentration of radioactivity, Nasal mucosa: 0.252 μg equivalents per gram
  concentration of radioactivity, Oesophageal wall: 1.72 μg equivalents per gram
  concentration of radioactivity, Tongue: 0.495 μg equivalents per gram
  concentration of radioactivity, Blood: 0.398 μg equivalents per gram
  concentration of radioactivity, Plasma: 0.461 μg equivalents per gram
[2]; 4 hours
  concentration of radioactivity, Aortic wall: 1.59 μg equivalents per gram
  concentration of radioactivity, Lung: 1.89 μg equivalents per gram
  concentration of radioactivity, Myocardium: 1.45 μg equivalents per gram
  concentration of radioactivity, Nasal mucosa: 0.708 μg equivalents per gram
  concentration of radioactivity, Oesophageal wall: 2.72 μg equivalents per gram
  concentration of radioactivity, Tongue: 1.92 μg equivalents per gram
  concentration of radioactivity, Blood: 0.978 μg equivalents per gram
  concentration of radioactivity, Plasma: 1.25 μg equivalents per gram
[2]; 8 hours
  concentration of radioactivity, Aortic wall: 1.74 μg equivalents per gram
  concentration of radioactivity, Lung: 1.45 μg equivalents per gram
  concentration of radioactivity, Myocardium: 0.677 μg equivalents per gram
  concentration of radioactivity, Nasal mucosa: 0.585 μg equivalents per gram
  concentration of radioactivity, Oesophageal wall: 0.795 μg equivalents per gram
  concentration of radioactivity, Tongue: 0.689 μg equivalents per gram
  concentration of radioactivity, Blood: 0.807 μg equivalents per gram
  concentration of radioactivity, Plasma: 1.18 μg equivalents per gram
[2]; 24 hours
  concentration of radioactivity, Aortic wall: 0.129 μg equivalents per gram
  concentration of radioactivity, Lung: 0.457 μg equivalents per gram
  concentration of radioactivity, Myocardium: 0.143 μg equivalents per gram
  concentration of radioactivity, Nasal mucosa: 0.084 μg equivalents per gram
  concentration of radioactivity, Oesophageal wall: 0.265 μg equivalents per gram
  concentration of radioactivity, Tongue: 0.122 μg equivalents per gram
  concentration of radioactivity, Blood: 0.229 μg equivalents per gram
  concentration of radioactivity, Plasma: 0.203 μg equivalents per gram
[2]; over the study duration, rat, oral 20 mg/kg
  increase of affinity of related radioactivity to bind to the cellular partition of blood: 10 fold
[2]; rat, oral 20 mg/kg
  binding of related material to melanin: no evidence for the binding
  radioactivity in the central nervous system / blood-brain barrier: drug related material crossed the blood-brain barrier, but was subsequently eliminated
  systemic and tissue bioavailability by the oral route (in words): excellent systemic and tissue bioavailability
[3]; 1 μM of ABX464 alone, HAE, RT-qPCR
  reduction of viral RNA: 1.5 log
[4]
  TCID50 (in words): dose-dependent decrease of the TCID50
[5]
  epithelium integrity measured by TEER (in words): protective effect on the integrity of bronchial epithelium
[6]; final sampling time of 168 hours, excretion balance phase
  radioactivity remaining in carcasses: less than 0.5 % of the administered dose
[6]; rat, oral 20 mg/kg
  elimination of radioactivity via faeces: 88%
  radioactivity excreted via the renal system: less than 5%
  total mean recovery of radioactivity: 93%±1.8
[6]; rat, oral 20 mg/kg, inferred from excretion
  orally administered dose absorbed: at least 5%

## O=C(O)[C@H]1O[C@@H](N(c2ccc(OC(F)(F)F)cc2)c2ccc3cccc(Cl)c3n2)[C@H](O)[C@@H](O)[C@@H]1O [ABX464-N-Gluc]
[1]; [7]
  inhibition at 0.1 µM: 0%
  inhibition at 1 µM: 29%
  inhibition at 10 µM: 88%
[1]; [8]
  inhibition at 0.1 µM: 0%
  inhibition at 1 µM: 20%
  inhibition at 10 µM: 99.9%
[1]; [9]
  inhibition at 0.1 µM: 0%
  inhibition at 1 µM: 38%
  inhibition at 10 µM: 76%
[1]
  effect on SARS-CoV2 replication (in words): dose-dependent effect
[4]
  TCID50 (in words): a decrease is also observed

## CCC(CC)COC(=O)[C@H](C)N[P@](=O)(OC[C@H]1O[C@@](C#N)(c2ccc3c(N)ncnn23)[C@H](O)[C@@H]1O)Oc1ccccc1 [Remdesivir, reference compound]
[1]; Severe acute respiratory syndrome coronavirus 2, read-out: % inhibition of viral infection, MEAN
  inhibition at 5 µM: 100%
[1]; Severe acute respiratory syndrome coronavirus 2, read-out: % inhibition of viral infection, N1
  inhibition at 5 µM: 99.9%
[1]; Severe acute respiratory syndrome coronavirus 2, read-out: % inhibition of viral infection, N2
  inhibition at 5 µM: 100%
[3]; REM alone (5 μM), values from another experiment
  reduction of viral RNA: 4 log

## N#Cc1ccc(Nc2ccc3ccccc3n2)nc1 [ABX300, reference compound]
[1]; all tested concentrations (10 μM, 1 μM and 0.1 μM)
  % inhibition of viral replication: 0%
[1]
  effect on SARS-CoV2 replication (in words): fails to show a marked effect on viral replication
[4]
  TCID50 (in words): very modest effect on the TCID50
[5]
  epithelium integrity measured by TEER (in words): reduction in epithelium integrity
